Where “and” joins values, the source holds several entries; their conditions need not be identical. Equal entries are not always repeated.
How the values were obtained:
CBR [1] = test: Km titration in live HEK293T cells; assay type: cell-based, click beetle; conditions: 60 min at 37° C.
Method: HEK293T cells were plated at 15,000 cells/well into wells of 96-well white assay plates and grown overnight. A transfection mixture was made containing 13 μg of CBR DNA and 40 μL FuGENE® HD in a total volume of 620 μL OptiMEM. The mixture was incubated at room temperature for 10 min. The cells were then transfected, in triplicate, with 5 μL of transfection complex and grown overnight. […] The growth media from the transfected cells was removed and replaced with one of the 3× serial diluted substrate containing media. The cells were incubated 60 min at 37° C., and the cells were imaged on a ImageQuant CCD imager (FIG. 22).

[2] = target: T1, QuantiLum® luciferase (firefly) (Photinus pyralis, UniProt P08659); test: Spectral scan of near-IR substrates with purified enzyme; assay type: biochemical; conditions: substrate 1 mM in Bright-Glo Assay buffer + 1 mM ATP
T1 construct: purchased Promega E1701
Method: Materials: The following were used in the Examples: Ultra-Glo™ Luciferase (Promega Cat. No. E140); QuantiLum® Recombinant Luciferase (Promega Cat. No. E1701); Click Beetle Red Luciferase (CBR; 0.5 mg/mL purified; Promega); Bright-Glo™ assay buffer (Promega Cat. No. E264A); PBI-4739 (Promega—See FIG. 1); and PBI-4813 (Promega—See FIG. 1).
Experimental Details. The substrates, PBI-4813 and PBI-4739, were diluted to 1 mM (final concentration) in Bright-Glo™ Assay buffer+1 mM ATP. 50 μL of substrate solution was added to 50 μL of Click Beetle Red, UltraGlo® or QuantiLum® purified enzyme (0.5 mg/mL diluted in DMEM+0.1% Prionex) in triplicate, and then the samples assayed using a Tecan M-1000 plate reader in spectral scan mode.
FIG. 2 provides the spectral data for Click Beetle Red Luciferase with PBI-4813 (A) and PBI-4739 (B), where the spectral maximum was 655 nm for PBI-4813 and 760 nm for PBI-4739. FIG. 3 provides the spectral data for UltraGlo® luciferase with PBI-4813 (A) and PBI-4739 (B), where the spectral maximum was 670 nm for PBI-4813 and 660 nm for PBI-4739. FIG. 4 provides the spectral data for QuantiLum® luciferase (firefly) with PBI-4813 (A) and PBI-4739 (B), where the spectral maximum was 680 nm for PBI-4813 and equal to or greater than 700 nm for PBI-4739.

cells = test: Cell toxicity studies; assay type: cell-based; conditions: compared to D-luciferin
[3] = Solubility of the substrates; assay type: physicochemical; conditions: PBI-4739 compared with PBI-4813
ATG1240 = test: Km titration in HEK293 cell lysates; assay type: biochemical, click beetle
Method: (§1) Some of the variants identified in Examples 2 and 3 were screened for their performance in mammalian cells. DNA was prepared by Plasmid.com. HEK293 and HeLa cells were plated into wells of a 24-well plate at 0.05×10^6 cells/mL and grown overnight at 37° C. with CO2. 2.2 μg variant DNA was mixed with 80 μL OptiMEM and 6.6 μL FuGENE® HD transfection reagent (Promega Corporation) and incubated at room temperature for 5 min. 25 μL of the DNA mixture was added to each well. After overnight incubation, the media was removed from the cells and 1 mL DPBS (Life Technologies) was added. […] Luminescence of the variants was normalized to the average of two CBR samples (FIG. 6 and FIG. 7). C. Km Titration. Cell lysates of ATG 1230 and ATG 1240 expressed in HEK293 cells were prepared as described in Example 4. The cell lysates were then diluted 1:10 in 0.3×PLB+0.1% Prionex. Dilutions (2×) of each substrate (PBI-4813 or PBI-4739) were prepared in Bright-Glo™ Assay buffer containing 1 mM ATP. 50 μL of diluted cell lysate was assayed with 50 μL of each substrate assay solution. Luminescence was detected on the GloMax® Discover (FIG. 12). […] Because the enzyme concentration is not known for the lysates of for live cell titrations, Vmax as expressed as a velocity is not possible. Instead, the relative Vmax calculates the maximum brightness for each lysate with different substrates.

CBR [4] = test: Km titration in HEK293 cell lysates; assay type: biochemical, click beetle
Method: as §1

CBR [5] = test: Km titration in live HeLa cells; assay type: cell-based, click beetle; conditions: 60 min at 37° C.
Method: HeLa cells were plated at 20,000 cells/well into wells of 96-well white assay plates and grown overnight. A transfection mixture was made containing 13 μg of CBR DNA and 40 μL FuGENE® HD in a total volume of 620 μL OptiMEM. The mixture was incubated at room temperature for 10 min. The cells were then transfected, in triplicate, with 5 μL of transfection complex and grown overnight. […] The growth media from the transfected cells was removed and replaced with one of the 3× serial diluted substrate containing media. The cells were incubated for 60 min at 37° C. Luminescence was detected on a GloMax®-Multi+luminometer (FIG. 21A and FIG. 21B).

ATG 1240 = test: Mimicry of tissue attenuation using long pass filters, transfected HEK293T cells; assay type: cell-based, click beetle; conditions: HEK293T cells expressing ATG 1240; long pass filters
Method: A transfection complex was prepared by diluting ATG 1240 DNA or Luc2 DNA (pF4Ag-Luc2) to 100 ng/μL, and then 2× serial dilutions prepared in 50 ng/μL pGEM carrier DNA. 40 μL of the diluted DNA was the mixed with 160 μL phenol red free OptiMEM and 16 μL of FuGENE® HD and incubated for 20 min. 5 μL of each transfection complex was added to wells of a 96-well black assay plates and then 100 μL of diluted HEK293T cells (200,000/mL in DMEM+10% FBS) was added. The cells were grown overnight at 37° C. with CO2.
To assay the cells, 4 mM D-luciferin, 2 mM PBI-4813 and 2 mM PBI-4739 substrate solutions were prepared in DMEM+10% FBS. 100 μL of the D-luciferin solution was added to cells expressing Luc2 and ATG 1240, and 100 μL of PBI-4813 or PBI-4739 solution was added to ATG 1240 expressing cells. Samples were incubated for 10 min at 37° C., and luminescence detected on GloMax® Discover (heated to 37° C.) with no filter, 610 nm Long Pass (LP) filter, 665 nm LP filter, 695 nm LP filter, 720 nm LP filter or 760 nm LP filter.

[6] = Km in live cell (remark in Example 13); assay type: cell-based; conditions: enzyme not stated
[7] = Substrate inhibition of luciferase activity at high substrate concentration; assay type: biochemical
[8] = system: Click Beetle Red (CBR) mutant(s); test: Light emission from Click Beetle Red mutant(s) with the red-shifted substrates; assay type: biochemical; conditions: PBI-4813 compared with PBI-4739
[9] = Luminescence of ATG 1230 and ATG 1240 cell lysates, GloMax Discover with red-sensitive PMT; assay type: biochemical
Method: 2. Cell lysates were prepared from cells containing the variants listed in Table 3 by diluting 100 μL of induced culture with 100 μL of lysis buffer (0.3×PLB, 0.006U RQ DNAse1) using a Tecan liquid handling robot. 50 μL of each cell lysate was assayed with either PBI-4813 or PBI-4739 (20 μM in Bright-Glo™ assay buffer containing 1 mM ATP), and luminescence detected on an ImageQuant CCD imager. Luminescence of the variants was normalized to CBR luciferase (FIG. 8).
Variant clones identified as ATG 1230 (CBR+389F+444R+251S) and ATG 1240 (CBR+334S+351R) were further evaluated for their luminescence, spectral property, Km and live cell kinetics with either PBI-4813 or PBI-4739. These variants were cloned and expressed as described in Example 2 except the template was pF4Ag-CBR, i.e., no HALOTAG®.
A. Luminescence with PBI-4813 and PBI-4739. Cell lysates of these variant clones were prepared and assayed for luminescence as described in Example 6. Luminescence was detected on a GloMax® Discover equipped with a red-sensitive photomultiplier tube (PMT) and compared to CBR luciferase (Table 5 and FIG. 10).

[10] = Km titration of ATG 1240 compared with CBR in live HEK293T cells; assay type: cell-based; conditions: 60 min at 37° C.
Method: HEK293T cells were plated at 15,000 cells/well into wells of 96-well white assay plates and grown overnight. A transfection mixture was made containing 6.6 μg of CBR or ATG-1240 DNA and 20 μL FuGENE® HD in a total volume of 310 μL OptiMEM. The mixture was incubated at room temperature for 10 min. The cells were then transfected, in triplicate, with 5 μL of transfection complex and grown overnight.
The transfected cells were then assayed. 2× serial dilutions of PBI-4813 and PBI-4739 starting at 2 mM in CO2 independent media+0.5% FBS were prepared. The growth media from the transfected cells was removed and replaced with one of the serial diluted substrate containing media. The cells were incubated 60 min at 37° C., and luminescence detected on a modified GloMax® Discover luminometer containing a red shifted PMT (see FIG. 23A and FIG. 23B). The Km of ATG 1240 was about 5 times higher than the Km of CBR with PBI-4813. The Km of ATG 1240 was about 3 times higher than the Km of CBR with PBI-4739.

[11] = Secondary library screen using ATG 1240 as template, lysate luminescence; assay type: biochemical; conditions: ATG 1240 template (WT = ATG-1240)
Method: A random clone library was prepared as described in Example 2 using ATG 1240 as a template. The variants were then cloned into pF4Ag (no HT7). The library was screened as follows (50 plates total):
i. Primary Screen. Cells were grown as described in Example 2. Cell lysates were prepared by diluting 100 μL of induced culture with 100 μL of lysis buffer (0.3×PLB+0.006U RQDNAse1) using a Tecan liquid handling robot. 50 μL of each cell lysate was then assayed with either PBI-4813 or PBI-4739. (20 μM substrate in Bright-Glo™ assay buffer containing 1 mM ATP). Luminescence was detected on a GloMax® Discover.
ii. Secondary Screen. Cells from each hit in the primary screen were streaked onto new plates and grown overnight. Colonies were picked in quadruplicate and cultures were grown as described in Example 2. 50 μL of each cell lysate was assayed with 50 μL of BrightGlo™ assay buffer containing 1 mM ATP and 30 μM PBI-4813 or 50 μM PBI-4739. Luminescence was detected on a GloMax® Discover Multimode Detection System (Table 6). The variants in this library were identified as having on average between 2-3 mutations per gene.

T1 sequence (P08659 whole entry): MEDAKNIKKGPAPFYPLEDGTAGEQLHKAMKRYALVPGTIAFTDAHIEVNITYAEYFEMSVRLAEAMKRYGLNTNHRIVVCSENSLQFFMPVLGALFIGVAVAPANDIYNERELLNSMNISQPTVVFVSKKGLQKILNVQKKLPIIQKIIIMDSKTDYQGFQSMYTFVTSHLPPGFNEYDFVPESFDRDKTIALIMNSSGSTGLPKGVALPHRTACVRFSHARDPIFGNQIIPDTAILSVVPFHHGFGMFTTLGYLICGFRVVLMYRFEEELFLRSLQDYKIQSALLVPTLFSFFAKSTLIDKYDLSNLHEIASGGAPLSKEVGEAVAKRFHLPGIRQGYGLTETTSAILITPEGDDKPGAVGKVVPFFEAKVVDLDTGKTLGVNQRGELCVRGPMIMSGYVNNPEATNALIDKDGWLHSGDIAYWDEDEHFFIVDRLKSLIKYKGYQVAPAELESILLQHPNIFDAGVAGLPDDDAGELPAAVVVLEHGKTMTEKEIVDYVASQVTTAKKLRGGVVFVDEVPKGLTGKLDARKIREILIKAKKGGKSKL

## O=C(O)C1CSC(c2nc3ccc4cc(O)ccc4c3s2)=N1 (stereo not shown) [PBI-4739]
CBR [1]
  Km for CBR, lower relative to D-luciferin: about 5 times
[2]
  spectral maximum with QuantiLum® luciferase (firefly): ≥ 700 nm
cells
  cell toxicity: comparable non-toxicity to D-luciferin
[3]
  solubility: less soluble

## Nc1ccc2c(ccc3nc(C4=NC(C(=O)O)CS4)sc32)c1 (stereo not shown) [PBI-4813]
ATG1240
  Km with ATG1240, lower than CBR with D-luciferin: about 5 ×
CBR [4]
  Km with CBR in the lysates, lower than CBR with D-luciferin: about 30 ×
CBR [5]
  Km for CBR in live cells, lower than the Km for D-luciferin: about 20 times
CBR [1]
  Km for CBR, lower relative to D-luciferin: about 23 times
[2]
  spectral maximum with QuantiLum® luciferase (firefly): 680 nm
ATG 1240
  luminescence of ATG 1240 at the greatest light attenuation: comparable
[6]
  Km less than for D-luciferin in live cell: more than 10 times
[7]
  substrate inhibition by the substrate: possible substrate inhibition
cells
  cell toxicity: comparable non-toxicity to D-luciferin
[8]
  brightness of light emission: brighter

B1: ATG 1240: CBR variant R334S and G351R (SEQ ID NO: 2) (protein)
chain: MVKREKNVIYGPEPLHPLEDLTAGEMLFRALRKHSHLPQALVDVVGDESLSYKEFFEATVLLAQSLHNCGYKMNDVVSICAENNTRFFIPVIAAWYIGMIVAPVNESYIPDELCKVMGISKPQIVFTTKNILNKVLEVQSRTNFIKRIIILDTVENIHGCESLPNFISRYSDGNIANFKPLHFDPVEQVAAILCSSGTTGLPKGVMQTHQNICVRLIHALDPRYGTQLIPGVTVLVYLPFFHAFGFHITLGYFMVGLRVIMFRRFDQEAFLKAIQDYEVRSVINVPSVILFLSKSPLVDKYDLSSLRELCCGAAPLAKEVAEVAAKRLNLPGISCGFGLTESTSAIIQTLRDEFKSGSLGRVTPLMAAKIADRETGKALGPNQVGELCIKGPMVSKGYVNNVEATKEAIDDDGWLHSGDFGYYDEDEHFYVVDRYKELIKYKGSQVAPAELEEILLKNPCIRDVAVVGIPDLEAGELPSAFVVKQPGTEITAKEVYDYLAERVSHTKYLRGGVRFVDSIPRNVTGKITRKELLKQLLVKAGGV
[9]; cell lysate, 20 μM PBI-4739
  Luminescence, PBI-4739: 37,169
[9]; cell lysate, 20 μM PBI-4813, GloMax Discover red-sensitive PMT
  Luminescence, PBI 4813: 71,299
[9]; ratio of luminescence with the two substrates
  PBI-4813/PBI-4739: 1.9
[10]
  Km higher than the Km of CBR with PBI-4739: about 3 times
  Km higher than the Km of CBR with PBI-4813: about 5 times
[11]; 30 μM PBI-4813, 1 mM ATP
  Luminescence, secondary screen, PBI-4813: 1.2 and 1.01 and 1.0 and 0.9 and 1.02 and 0.97
[11]; 50 μM PBI-4739, 1 mM ATP
  Luminescence, secondary screen, PBI-4739: 1.1 and 1.05 and 1.0 and 0.99 and 0.97 and 0.9
[7]; PBI-4813 at concentrations greater than ten times the Km
  inhibition of luciferase activity by PBI-4813: does not show this inhibition
